The text below walks through data of US20230212225A1, “PEPTIDE COMPOSTIONS AND METHODS FOR TREATING TAUOPATHIES” (AXOLTIS PHARMA, priority 2019, published 2023).

Where a SMILES comes first, the peptide text is derived from it.

In assay [1] the test system is Aβ25-35-induced spatial working memory deficits. Nature of the assay: Place learning in the Morris water-maze (MWM), D09-D14. The conditions noted are these: IP 2 mg/kg once a day. It is filed as in vivo, mice. On the procedure:
The examples are using a model of Tauopathies. In this model, mice were injected intracerebroventricularly (ICV) at Day 01 (D01) with Aβ25-35 peptide (or with scrambled-Aβ peptide (Sc.Aβ) for Sham animals). This severe animal model recapitulates modulations of specific biomarkers (including deposits of brain Amyloid Beta1-42 and hyperphosphorylated Tau protein) involved in the physiopathology and the progression of human Tauopathies, as well as strong cognitive deficits (memory loss) as encountered by the patients (Maurice et al., 1996, 1998, 2013; Meunier et al., 2006).
After the Y-Maze and instead of performing the STPA test, some animals performed the Morris Water-Maze (MWM) test in order to assess spatial working memory deficits (a six-day test from D09 to D14). This gold-standard test consists in a circular pool filled with opaque water placed in a room with external cues (sink, contrasted posters, shelves). A platform is immersed under the water surface during acquisition. Training consists in 3 swims per day for 5 days, performed between D09 to D13, with a 20 min inter-trial time. Each mouse is allowed to swim for 90 sec in order to find the platform, and to stay on it for 20 sec.
A probe test (PT) is performed 24 h after the last swim on D14. For the PT, the platform is removed, and each animal is allowed to swim for 60 sec. The start position for each mouse corresponds to one of two positions remote from the platform location in a counterbalanced order. The platform quadrant is named ‘target’ and other quadrants (opposite, adjacent right and adjacent left) are named ‘other’ during the PT. The time spent in each quadrant is recorded. The results are expressed as the percentage of time spent in the target quadrant compared to the mean percentage of time spent in the three other quadrants.
Every day, the latencies to find the platform during the first (swim1), second (swim2), third (swim3), […] trials were monitored and averaged in this six-day experiment (Maurice et al., 2013).

Assay [2] relates to Aβ25-35-induced short-term memory deficits. Description: Late-stage efficacy: Y-maze with treatment started at D11. It is filed as in vivo, mice. On the procedure: Seven days after ICV injection of Aβ25-35 peptide (D08), all animals were tested for spontaneous alternation performance in the Y-maze, an index of spatial working memory (short-term memory test). Each mouse was placed at the end of one arm and allowed to move freely through the maze during an 8 min session. An alternation is defined as entries into all three arms on consecutive occasions. The number of maximum alternations is therefore the total number of arm entries minus two and the percentage of alternation is calculated as (actual alternations / maximum alternations) x 100. This parameter includes the percentage of alternation (memory index) (Maurice et al., 1996, 1998; Meunier et al., 2006).
The efficacy of NX210 and NX218 SCO-Spondin derived peptides was therefore assessed during this late-stage physiopathology setting. Specifically, the administrations of NX210, NX218 or vehicle were started at D11 and were repeated once a day until the end of the experiment.
All animals were tested for spontaneous alternation performance in the Y-maze, an index of short-term memory (see Example 3 for method details) from D08 (i.e. pre-treatment values) and then once a week for three weeks (D15, D22, D29).

[3] abbreviates: D08, pre-treatment value, IP 2 mg/kg once a day started at D11.
Setting [4] is: D15, IP 2 mg/kg once a day started at D11.
Setting [5] is: D22, IP 2 mg/kg once a day started at D11.
Where [6] appears, read: D29, IP 2 mg/kg once a day started at D11.

With `N=C(N)NCCC[C@H](NC(=O)[C@H](CO)NC(=O)[C@H](CS)NC(=O)[C@H](CO)NC(=O)[C@H](CO)NC(=O)[C@H](Cc1c[nH]c2ccccc12)NC(=O)CNC(=O)[C@H](CO)NC(=O)[C@@H](N)Cc1c[nH]c2ccccc12)C(=O)N[C@@H](CO)C(=O)N[C@@H](CS)C(=O)NCC(=O)O` [NX210, W-S-G-W-S-S-C-S-R-S-C-G] (H-WSGWSSCSRSCG-OH; N-terminus and C-terminus assumed), the “effect on learning profile and spatial memory deficits (MWM), in words” value in assay [1] is “significantly rescued”. In addition, in assay [1] (D14), the “MWM - Probe test, mean percentage of time spent in the three other quadrants (Other)” value came to 20.30%. Further, the “MWM - Learning profile, Mean time spent to find the platform (last block, heading missing)” value in assay [1] (fifth training day) is 24.25 s. For the same compound, in assay [1] (training Day 1), the “MWM - Learning profile - Day 1, Mean time spent to find the platform” value is 79.67 s. The “MWM - Learning profile - Day 2, Mean time spent to find the platform” value in assay [1] (training Day 2) is 53.58 s. The “MWM - Learning profile - Day 3, Mean time spent to find the platform” value in assay [1] (training Day 3) was 35.83 s. Moreover, the “MWM - Learning profile - Day 4, Mean time spent to find the platform” value in assay [1] (training Day 4) turned out to be 25.92 s. In assay [2] (setting [3]), the “Y-maze (D08) % (Sc.Aβ / D11 vhc = 100)” value is on record as 55% and the “Y-maze (D08) Mean, percentage of alternation” value is reported as 39.17%. Besides, the “effect on short-term working memory deficits at D15, in words” value in assay [2] (D15, five daily administrations, 2 mg/kg started at D11) was “tendency to rescue”. Also, in assay [2] (setting [4]), the “Y-maze (D15) % (Sc.Aβ / D11 vhc = 100)” value came out at 71% and the “Y-maze (D15) Mean, percentage of alternation” value was 55.55%. Also, the “effect on working memory deficits at D22, in words” value in assay [2] (D22, 12 day-treatment, 2 mg/kg started at D11) was “significantly rescued”. In addition, in assay [2] (setting [5]), the “Y-maze (D22) % (Sc.Aβ / D11 vhc = 100)” value amounted to 82% and the “Y-maze (D22) Mean, percentage of alternation” value was found to be 60.08%. For the same compound, the “effect on memory deficits at D29, in words” value in assay [2] (D29, 19 day-treatment, 2 mg/kg started at D11) was “fully restored”. In addition, in assay [2] (setting [6]), the “Y-maze (D29) % (compared to Sham group)” value came out at 97% and the “Y-maze (D29) Mean, percentage of alternation” value turned out to be 74.73%.
